The term solubility (kinetic) denotes solubility judged after dilution from a stock solution rather than from solid. As a reminder, the IC50 is the concentration that gives 50% inhibition. A word on the half-life: it is the time needed for the level to fall by half in the phase considered. The term inhibition denotes the change of the read-out against control, counted positive when it falls. Read a high inhibition as strong suppression. The term Ki denotes the dissociation constant of the complex between target and ligand, obtained from inhibition or displacement. By solubility is commonly meant the concentration that dissolves in the medium under given conditions. A higher solubility goes with a readily soluble substance.

Like-named read-outs stand apart in the source and are kept apart here.

The text below walks through data of patent publication US7947717B2 (priority 2008, dated 2011).

One data set in a line: physchem. Conditions: 23 °C, pH 7.4, aqueous with cosolvent or surfactant or cyclodextrin, kinetic from dmso stock.
The target in another data set is human CYP2D6 (Homo sapiens, UniProt P10635). As to the kind of experiment: biochemical.
For the next data set, the target named is human CYP2C9 (Homo sapiens, UniProt P11712). As to the kind of experiment: biochemical.
Sequence of human CYP2C9 (P11712 whole entry): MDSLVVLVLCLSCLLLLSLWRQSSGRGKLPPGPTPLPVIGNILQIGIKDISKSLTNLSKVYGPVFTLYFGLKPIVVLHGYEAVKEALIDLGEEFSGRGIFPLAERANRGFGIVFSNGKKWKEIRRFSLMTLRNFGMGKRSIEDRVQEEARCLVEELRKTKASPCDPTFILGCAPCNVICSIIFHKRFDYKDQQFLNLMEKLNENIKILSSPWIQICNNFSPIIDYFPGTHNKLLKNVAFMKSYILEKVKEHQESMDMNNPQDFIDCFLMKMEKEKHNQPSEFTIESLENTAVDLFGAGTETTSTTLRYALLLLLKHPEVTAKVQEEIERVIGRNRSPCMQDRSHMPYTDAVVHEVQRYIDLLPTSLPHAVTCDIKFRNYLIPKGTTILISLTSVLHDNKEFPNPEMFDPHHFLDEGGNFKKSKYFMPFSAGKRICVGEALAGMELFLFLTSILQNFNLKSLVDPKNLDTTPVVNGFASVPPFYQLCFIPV
A further data set addresses human CYP 2C19 (Homo sapiens, UniProt P33261). As to the kind of experiment: biochemical.
The nature of data set [1]: in vitro. The following applies: rat, hepatocytes, pH 7.4.
Data set [2] is described as follows: in vitro. The following applies: s9.
For data set [3] the following is noted: rat.
In the next data set the target is hERG (Homo sapiens, UniProt Q12809). As to the kind of experiment: in vitro.
Sequence of hERG (Q12809 whole entry): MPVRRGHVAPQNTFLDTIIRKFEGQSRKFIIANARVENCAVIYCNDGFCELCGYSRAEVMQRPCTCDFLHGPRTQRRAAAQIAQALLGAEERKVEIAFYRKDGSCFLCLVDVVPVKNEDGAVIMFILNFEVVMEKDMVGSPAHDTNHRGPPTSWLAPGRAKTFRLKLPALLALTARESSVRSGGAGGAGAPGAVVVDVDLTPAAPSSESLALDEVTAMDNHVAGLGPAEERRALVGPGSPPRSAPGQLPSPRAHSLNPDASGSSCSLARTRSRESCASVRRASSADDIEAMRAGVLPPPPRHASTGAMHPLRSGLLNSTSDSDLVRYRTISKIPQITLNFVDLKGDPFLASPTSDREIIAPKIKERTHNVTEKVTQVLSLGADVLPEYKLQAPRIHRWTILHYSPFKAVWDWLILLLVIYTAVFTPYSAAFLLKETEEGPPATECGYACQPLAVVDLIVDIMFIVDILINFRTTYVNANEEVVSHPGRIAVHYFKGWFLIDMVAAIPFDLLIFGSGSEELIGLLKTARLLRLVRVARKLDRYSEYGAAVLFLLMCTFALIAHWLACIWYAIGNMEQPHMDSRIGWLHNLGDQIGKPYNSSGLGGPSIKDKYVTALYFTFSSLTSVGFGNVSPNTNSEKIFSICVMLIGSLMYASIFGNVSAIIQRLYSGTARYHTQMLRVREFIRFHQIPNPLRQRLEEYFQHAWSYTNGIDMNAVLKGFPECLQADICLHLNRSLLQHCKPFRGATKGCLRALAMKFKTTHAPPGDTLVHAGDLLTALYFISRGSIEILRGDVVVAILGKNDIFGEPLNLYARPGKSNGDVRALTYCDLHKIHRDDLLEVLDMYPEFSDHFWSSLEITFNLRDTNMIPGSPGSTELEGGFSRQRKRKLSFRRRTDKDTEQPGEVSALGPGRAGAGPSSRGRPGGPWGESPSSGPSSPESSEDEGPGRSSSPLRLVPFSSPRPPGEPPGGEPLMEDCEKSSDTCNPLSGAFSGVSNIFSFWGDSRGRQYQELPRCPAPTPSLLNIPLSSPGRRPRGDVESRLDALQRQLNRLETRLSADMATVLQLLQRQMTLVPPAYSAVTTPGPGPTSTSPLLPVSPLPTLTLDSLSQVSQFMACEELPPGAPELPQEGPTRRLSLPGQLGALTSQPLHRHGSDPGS
A further data set deals with lethal factor (LF) (Bacillus anthracis, UniProt P15917). As to the kind of experiment: biochemical. Type of data set: biochemical.
Sequence of lethal factor (LF) (P15917 34-809 limits assumed): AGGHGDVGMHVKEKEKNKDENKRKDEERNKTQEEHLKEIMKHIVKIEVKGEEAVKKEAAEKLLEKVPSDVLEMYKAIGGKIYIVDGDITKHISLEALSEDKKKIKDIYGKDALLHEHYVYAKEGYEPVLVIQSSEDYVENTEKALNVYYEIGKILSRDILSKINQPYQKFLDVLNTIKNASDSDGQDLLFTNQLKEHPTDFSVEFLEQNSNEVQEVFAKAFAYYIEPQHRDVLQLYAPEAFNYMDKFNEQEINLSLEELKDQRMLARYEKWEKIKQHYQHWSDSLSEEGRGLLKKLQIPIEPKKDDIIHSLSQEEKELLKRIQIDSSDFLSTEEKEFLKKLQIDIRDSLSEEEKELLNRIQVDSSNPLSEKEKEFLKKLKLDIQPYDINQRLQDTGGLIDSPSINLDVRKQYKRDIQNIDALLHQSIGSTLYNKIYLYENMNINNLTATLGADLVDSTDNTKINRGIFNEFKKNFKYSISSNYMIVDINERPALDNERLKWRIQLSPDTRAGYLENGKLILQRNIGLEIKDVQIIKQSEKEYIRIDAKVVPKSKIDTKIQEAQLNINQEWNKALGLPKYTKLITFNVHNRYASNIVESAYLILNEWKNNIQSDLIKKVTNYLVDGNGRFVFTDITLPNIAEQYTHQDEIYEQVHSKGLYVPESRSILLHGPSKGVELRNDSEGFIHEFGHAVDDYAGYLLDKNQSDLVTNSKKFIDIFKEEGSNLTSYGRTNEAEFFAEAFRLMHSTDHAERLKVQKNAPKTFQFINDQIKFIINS
For another data set, the target named is T1, human CYP1A2 (Homo sapiens, UniProt P05177).
T1 sequence (P05177 1-516): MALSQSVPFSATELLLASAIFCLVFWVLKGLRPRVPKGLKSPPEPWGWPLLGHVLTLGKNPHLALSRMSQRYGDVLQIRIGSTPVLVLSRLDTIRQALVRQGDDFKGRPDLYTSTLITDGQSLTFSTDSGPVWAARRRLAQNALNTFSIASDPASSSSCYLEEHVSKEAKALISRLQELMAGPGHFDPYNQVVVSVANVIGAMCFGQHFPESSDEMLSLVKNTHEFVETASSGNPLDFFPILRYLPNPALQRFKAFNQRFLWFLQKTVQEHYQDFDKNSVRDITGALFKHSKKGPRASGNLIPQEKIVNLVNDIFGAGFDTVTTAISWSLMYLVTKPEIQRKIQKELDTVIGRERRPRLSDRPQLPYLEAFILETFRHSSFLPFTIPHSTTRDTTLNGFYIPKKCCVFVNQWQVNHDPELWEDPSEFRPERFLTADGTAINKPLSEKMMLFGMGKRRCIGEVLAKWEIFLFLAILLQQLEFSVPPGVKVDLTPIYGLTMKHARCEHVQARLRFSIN
In words: biochemical.

A further data set deals with HepG2 cells. Conditions: human.
In a further data set the target is BoNT A (Clostridium botulinum, UniProt P0DPI0). As to the kind of experiment: biochemical.
Sequence of BoNT A (P0DPI0 whole entry, looked up): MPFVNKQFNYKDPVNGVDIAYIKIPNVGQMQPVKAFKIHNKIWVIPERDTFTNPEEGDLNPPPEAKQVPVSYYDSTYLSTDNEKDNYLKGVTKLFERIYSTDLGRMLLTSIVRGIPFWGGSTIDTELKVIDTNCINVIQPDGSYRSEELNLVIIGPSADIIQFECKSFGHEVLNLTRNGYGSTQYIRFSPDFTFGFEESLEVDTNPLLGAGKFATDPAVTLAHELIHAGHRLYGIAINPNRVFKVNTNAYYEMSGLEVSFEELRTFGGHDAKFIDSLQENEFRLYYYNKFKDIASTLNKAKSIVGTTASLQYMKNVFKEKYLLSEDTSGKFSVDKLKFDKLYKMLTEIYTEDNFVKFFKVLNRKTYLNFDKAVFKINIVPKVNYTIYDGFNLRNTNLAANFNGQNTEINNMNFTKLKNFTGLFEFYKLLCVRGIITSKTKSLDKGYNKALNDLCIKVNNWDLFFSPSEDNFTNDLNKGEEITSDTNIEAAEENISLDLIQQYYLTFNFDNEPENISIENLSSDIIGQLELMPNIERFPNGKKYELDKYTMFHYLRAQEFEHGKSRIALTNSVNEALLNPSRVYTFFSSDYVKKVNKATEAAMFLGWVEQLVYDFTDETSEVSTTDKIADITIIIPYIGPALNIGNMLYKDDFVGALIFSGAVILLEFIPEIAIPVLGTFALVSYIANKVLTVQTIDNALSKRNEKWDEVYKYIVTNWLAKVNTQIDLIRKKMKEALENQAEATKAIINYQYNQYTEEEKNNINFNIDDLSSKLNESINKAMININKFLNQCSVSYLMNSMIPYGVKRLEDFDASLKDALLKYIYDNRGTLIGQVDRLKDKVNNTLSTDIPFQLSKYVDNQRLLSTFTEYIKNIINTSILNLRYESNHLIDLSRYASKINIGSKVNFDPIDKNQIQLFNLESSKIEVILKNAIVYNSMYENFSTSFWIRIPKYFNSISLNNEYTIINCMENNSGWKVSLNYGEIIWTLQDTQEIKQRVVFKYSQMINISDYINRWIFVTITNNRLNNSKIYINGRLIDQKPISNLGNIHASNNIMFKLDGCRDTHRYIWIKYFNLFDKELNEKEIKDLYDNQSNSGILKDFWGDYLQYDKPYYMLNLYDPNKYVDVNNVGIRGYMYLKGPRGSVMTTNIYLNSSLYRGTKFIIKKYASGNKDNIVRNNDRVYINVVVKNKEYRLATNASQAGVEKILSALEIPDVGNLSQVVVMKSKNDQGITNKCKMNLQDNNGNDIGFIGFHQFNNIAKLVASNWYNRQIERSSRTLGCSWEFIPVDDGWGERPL
A further data set addresses T2, MMP-2 (Homo sapiens, UniProt P08253).
T2 construct: purchased Anaspec, Inc. 71151/71155
T2 sequence (P08253 110-660): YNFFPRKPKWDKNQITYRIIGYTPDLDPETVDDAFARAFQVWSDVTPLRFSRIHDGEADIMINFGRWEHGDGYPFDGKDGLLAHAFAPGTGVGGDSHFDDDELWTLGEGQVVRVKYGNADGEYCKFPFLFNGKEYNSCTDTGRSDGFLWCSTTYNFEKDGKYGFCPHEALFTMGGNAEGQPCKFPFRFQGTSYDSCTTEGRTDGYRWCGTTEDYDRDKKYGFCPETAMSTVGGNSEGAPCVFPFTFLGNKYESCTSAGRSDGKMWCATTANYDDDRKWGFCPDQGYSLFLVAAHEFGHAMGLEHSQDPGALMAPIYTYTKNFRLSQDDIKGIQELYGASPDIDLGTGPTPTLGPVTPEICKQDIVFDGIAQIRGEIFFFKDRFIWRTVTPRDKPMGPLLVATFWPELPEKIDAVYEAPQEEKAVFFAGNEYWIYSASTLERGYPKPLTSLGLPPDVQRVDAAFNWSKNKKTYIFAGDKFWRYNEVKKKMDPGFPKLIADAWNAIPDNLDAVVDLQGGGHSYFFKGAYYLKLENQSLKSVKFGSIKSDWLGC
In words: MMP-2 assay (Anaspec kit). Type of data set: biochemical.

In the next data set the test system is RAW 264.7 cells. The format is cell-based, Murine.
Data set [4] concerns Bacillus anthracis Sterne spores. Further details: species or system A/J mice. The following applies: mouse, in vivo.
A further data set addresses T3, MMP-9 (Homo sapiens, UniProt P14780).
T3 construct: purchased Anaspec, Inc. 71151/71155
In words: MMP-9 assay (Anaspec kit). Type of data set: biochemical.

The conditions of data set [5]: rat, hepatocytes.
The target in another data set is human CYP3A4 (Homo sapiens, UniProt P08684). As to the kind of experiment: biochemical.
Test in data set [6]: not given
The source holds these as a separate data set.

The target of another data set is human MDR1 ABCB1/Pgp (Homo sapiens, UniProt P08183).
A further data set addresses LF metalloproteinase (Bacillus anthracis, UniProt P15917). Conditions: read-out: Ki of LF metalloproteinase activity; cited from earlier work.
Setting [7] is: read-out: IC50 (μM) of selected LF compounds (Table 7).

T3 sequence (P14780 107-707 limits assumed): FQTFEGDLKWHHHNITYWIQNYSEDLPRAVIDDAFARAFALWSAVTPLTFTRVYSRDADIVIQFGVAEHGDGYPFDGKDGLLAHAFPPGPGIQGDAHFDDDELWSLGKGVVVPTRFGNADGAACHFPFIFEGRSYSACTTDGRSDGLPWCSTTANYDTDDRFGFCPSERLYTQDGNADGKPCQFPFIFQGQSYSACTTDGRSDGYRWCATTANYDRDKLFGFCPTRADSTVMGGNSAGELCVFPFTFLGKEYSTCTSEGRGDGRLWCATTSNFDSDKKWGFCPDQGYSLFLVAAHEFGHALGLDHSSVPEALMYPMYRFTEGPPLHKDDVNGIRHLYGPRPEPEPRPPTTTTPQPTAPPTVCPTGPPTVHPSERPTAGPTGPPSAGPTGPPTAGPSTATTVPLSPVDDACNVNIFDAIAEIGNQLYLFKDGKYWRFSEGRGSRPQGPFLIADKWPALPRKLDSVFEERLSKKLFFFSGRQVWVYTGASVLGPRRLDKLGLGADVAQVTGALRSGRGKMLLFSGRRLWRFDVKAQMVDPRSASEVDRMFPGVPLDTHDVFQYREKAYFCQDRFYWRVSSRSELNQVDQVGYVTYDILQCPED
Sequence of human CYP 2C19 (P33261 whole entry): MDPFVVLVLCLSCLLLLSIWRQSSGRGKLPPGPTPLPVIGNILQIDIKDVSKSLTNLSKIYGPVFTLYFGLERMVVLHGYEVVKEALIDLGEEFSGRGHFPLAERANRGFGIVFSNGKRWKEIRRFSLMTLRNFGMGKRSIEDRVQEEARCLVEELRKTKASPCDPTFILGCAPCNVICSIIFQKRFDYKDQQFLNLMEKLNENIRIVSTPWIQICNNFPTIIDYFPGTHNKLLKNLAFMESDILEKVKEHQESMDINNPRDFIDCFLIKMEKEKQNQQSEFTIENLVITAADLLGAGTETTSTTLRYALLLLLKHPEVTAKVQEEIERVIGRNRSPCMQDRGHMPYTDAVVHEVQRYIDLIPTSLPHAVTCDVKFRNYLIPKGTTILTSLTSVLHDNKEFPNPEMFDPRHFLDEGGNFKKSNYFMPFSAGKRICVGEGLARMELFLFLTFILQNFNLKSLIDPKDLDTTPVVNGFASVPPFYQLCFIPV

The compound `COc1ccc(-c2ccc(/C=C3\SC(=S)N(CC(=O)O)C3=O)o2)cc1Cl` [Compound 1] returned a solubility (kinetic) in “physchem” below 10 µg/mL. In addition, the IC50 against human CYP2D6 turned out to be 30.5 µM; against human CYP2C9 it was 28.3 µM; against human CYP 2C19, 31.3 µM; at lethal factor (LF), 0.29 µM; at human CYP1A2, 20.9 µM. The values for the half-life in the data set “in vitro [1]” and in the data set “in vitro [2]” were 37.1 min and 128 min, respectively. For the same compound, the hepatocyte CLint worked out at 21.6 µL/min/1e6 cells in “in vitro [1]” and 5.6 in the data set “in vitro [2]”. Besides, the “Plasma Stab. T = 30 min (l)” value in data set [3] is listed as 90%. Also, 30 µM produced 58% inhibition against hERG. Moreover, the “Cytox. (c) Cytotoxicity against HepG2 cells” value (from here on “Cytox. (c) Cytotoxicity”) in the data set on HepG2 cells is “Nontoxic up to 100 μM”.

For the compound `O=C(O)CN1C(=O)/C(=C/c2cn(-c3ccc(Cl)cc3)nc2-c2ccc(Cl)cc2)SC1=S` [Compound 34, (Z)-2-(5-((1,3-bis(4-chlorophenyl)-1H-pyrazol-4-yl)methylene)-4-oxo-2-thioxothiazolidin-3-yl)acetic acid], the IC50 was determined as 8.18 µM on BoNT A and 2.95 µM on lethal factor (LF) (pH 7.4, read-out: LF IC50). Also, the “inhibition of MMP-2 (in words)” value against MMP-2 is “did not inhibit”. Further, the “protection of macrophages from LF/PA-induced cell death” value (shortened to “protection of macrophages”) in the data set with RAW 264.7 cells is recorded as “protect macrophages from LF/PA-induced cell death”. Moreover, the “survival compared to control group (in words, FIG. 3)” value in [4] is given as “survived significantly better than control”. Besides, at MMP-9, the “inhibition of MMP-9 (in words)” value was “did not inhibit”.

Turning to `O=C1/C(=C/c2cn(-c3ccccc3)nc2-c2ccc(OCc3ccc(Cl)cc3)cc2)SC(=S)N1CCS(=O)(=O)O` [Compound 38, (Z)-2-(5-((3-(4-(4-chlorobenzyloxy)phenyl)-1-phenyl-1H-pyrazol-4-yl)methylene)-4-oxo-2-thioxothiazolidin-3-yl)ethanesulfonic acid], the IC50 at BoNT A was above 200 µM; on MMP-2, 10.1 µM; at lethal factor (LF) (pH 7.4, read-out: LF IC50) it was 2.45 µM. In the data set on RAW 264.7 cells, the “protection of macrophages” value is listed as “protect macrophages from LF/PA-induced cell death”.

For the compound `CC1Cc2cc(-c3nn(-c4ccccc4)cc3/C=C3\SC(=S)N(CCS(=O)(=O)O)C3=O)ccc2O1` (centres unmarked) [Compound 39, (Z)-2-(5-((3-(2-methyl-2,3-dihydrobenzofuran-5-yl)-1-phenyl-1H-pyrazol-4-yl)methylene)-4-oxo-2-thioxothiazolidin-3-yl)ethanesulfonic acid], the IC50 on BoNT A was above 200 µM; at lethal factor (LF) (pH 7.4, read-out: LF IC50), 2.29 µM. For the same compound, the “protection of macrophages” value with RAW 264.7 cells is “protect macrophages from LF/PA-induced cell death”.

Consider `COc1ccc(-c2nn(-c3ccccc3)cc2/C=C2\SC(=S)N(CCS(=O)(=O)O)C2=O)cc1` [Compound 40, (Z)-2-(5-((3-(4-methoxyphenyl)-1-phenyl-1H-pyrazol-4-yl)methylene)-4-oxo-2-thioxothiazolidin-3-yl)ethanesulfonic acid], for which the IC50 against BoNT A is above 200 µM; against MMP-2 it was 34.5 µM; at lethal factor (LF) (pH 7.4, read-out: LF IC50), 2.04 µM. The “protection of macrophages” value with RAW 264.7 cells was “protect macrophages from LF/PA-induced cell death”.

On to `O=C(O)CN1C(=O)/C(=C/c2ccc(N3CCOCC3)s2)SC1=S` [Compound 48, (Z)-2-(5-((5-morpholinothiophen-2-yl)methylene)-4-oxo-2-thioxothiazolidin-3-yl)acetic acid], for which the concentration for half-maximal inhibition (IC50) at BoNT A amounted to 112 µM; on MMP-2 (read-out: MMP2 IC50), 47.1 µM; at MMP-9 (read-out: MMP9 IC50) it was 64.9 µM; at lethal factor (LF) (pH 7.4, read-out: LF IC50) it was 32.5 µM.

For the compound `O=C(O)CN1C(=O)/C(=C/c2csc3ccc(Br)cc23)SC1=S` [Compound 58, (Z)-2-(5-((5-bromobenzo[b]thiophen-3-yl)methylene)-4-oxo-2-thioxothiazolidin-3-yl)acetic acid], the IC50 worked out at 74.3 µM against BoNT A; 46.9 µM at MMP-2 (read-out: MMP2 IC50); 64.9 µM on MMP-9 (read-out: MMP9 IC50); 10.4 µM on lethal factor (LF) (pH 7.4, read-out: LF IC50).

In the case of `O=C(O)CN1C(=O)/C(=C2/C(=O)N(CC(=O)Nc3cccc(Cl)c3)c3ccccc32)SC1=S` [Compound 62, (Z)-2-(5-(1-(2-(3-chlorophenylamino)-2-oxoethyl)-2-oxoindolin-3-ylidene)-4-oxo-2-thioxothiazolidin-3-yl)acetic acid], the IC50 was above 200 µM at BoNT A; above 25 µM on MMP-2; above 25 µM at MMP-9; 4.4 µM at lethal factor (LF) (pH 7.4, read-out: LF IC50).

As for `O=C(O)CN1C(=O)/C(=C/c2ccc(-c3ccc(Cl)c(Cl)c3)o2)SC1=S` [Compound 64], the “Pampa (d) permeability class” value is “Med”. In the data set “physchem”, this compound registered a kinetic solubility below 10 µg/mL. Further, in [5], the “Met. Stab. t1/2 (k)” value was “Degraded”. At human CYP2D6, this compound gave an IC50 of 47.6 µM. Besides, at human CYP3A4, the concentration for half-maximal inhibition (IC50) was above 50 µM. The IC50 at human CYP2C9 is above 50 µM. The compound also yielded an IC50 against human CYP 2C19 of 36.9 µM. Besides, the “Plasma Stab. T = 30 min (l)” value in data set [3] came to 79%. Further, the inhibition at 30 µM at hERG was 67%. In addition, the IC50 on lethal factor (LF) (setting [7]) amounted to 0.26 µM. On human CYP1A2, it took 2.79 µM to reach half-maximal inhibition (IC50). Besides, in the data set on HepG2 cells, the “Cytox. (c) Cytotoxicity” value is “Nontoxic up to 100 μM”. Further, the “Liver S9 Stab t1/2 (m)” value in [6] is on record as “Degraded”.

As for `O=C(O)CN1C(=O)/C(=C/c2ccc(-c3cc(C(F)(F)F)ccc3Cl)o2)SC1=S` [Compound 65], the kinetic solubility in the data set “physchem” was below 10 µg/mL. In addition, the IC50 is above 100 µM on human CYP2D6; above 100 µM against human CYP2C9; above 100 µM against human CYP 2C19; 0.19 µM on lethal factor (LF) (setting [7]); 20.5 µM at human CYP1A2; above 100 µM at human MDR1 ABCB1/Pgp. In addition, the results for the half-life in the data set “in vitro [1]” and in “in vitro [2]” were 42.4 min and 37.3 min, respectively. Further, the hepatocyte CLint in “in vitro [1]” worked out at 19.8 µL/min/1e6 cells; in “in vitro [2]”, 25. Besides, the “Plasma Stab. T = 30 min (l)” value in [3] worked out at 82%. The compound further had an inhibition at 30 µM against hERG of 45%. Besides, the “Cytox. (c) Cytotoxicity” value with HepG2 cells was “Nontoxic up to 100 μM”.

For `O=C(O)CN1C(=O)/C(=C/c2ccc(-c3cccs3)s2)SC1=S` [Compound 66, (Z)-2-(4-oxo-5-((5-(thiophen-2-yl)thiophen-2-yl)methylene)-2-thioxothiazolidin-3-yl)acetic acid], the “Pampa (d) permeability class” value is “Med”. In addition, the kinetic solubility in the data set “physchem” is below 10 µg/mL. In data set [5], the “Met. Stab. t1/2 (k)” value is reported as “Degraded”. Further, on human CYP2C9, the IC50 was above 100 µM. In data set [3], the “Plasma Stab. T = 30 min (l)” value is 90%. Moreover, 30 µM produced 29% inhibition at hERG. The IC50 on lethal factor (LF) (setting [7]) came out at 2.3 µM. Besides, the “Cytox. (c) Cytotoxicity” value in the data set on HepG2 cells is recorded as “Nontoxic up to 100 μM”. Moreover, the “Liver S9 Stab t1/2 (m)” value in data set [6] is reported as “Degraded”.

`CNC(=O)[C@H](Cc1c[nH]c2ccccc12)NC(=O)[C@@H](CC(=O)NO)CC(C)C` [GM6001]: the Ki on LF metalloproteinase is around 5 µM.

Turning to `COCCc1ccc(OCC(O)CNC(C)C)cc1` (centres unmarked) [Metoprolol], the “Pampa (d) permeability class” value is “High”.

`CC(C)NCC(O)COc1cccc2ccccc12` (centres unmarked) [Propranolol]: the “Pampa (d) permeability class” value is reported as “High”.

The compound `CC(=O)Oc1ccccc1C(=O)O` [acetylsalicylic acid, reference compound] had a solubility in the data set “physchem” above 100 µg/mL.

In the case of Lucifer Yellow, the “Pampa (d) permeability class” value is given as “Low”.
